Data reported in the supplement of paper PMC11208160.
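Further: IS621 recombinase and bridge RNA in Escherichia coli cells.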

Assay: recombinant barcode read abundance after kanamycin selection (control-corrected) (log10(CPM+1)); higher = more efficient recombination; sequences stand for … in AGTGCAGAGAAAATCGGCCAGTTTTCTCTGCCTGCAGTCCGCATGCCGT…AGATTTATGCAGCGGACTGCCTTTCTCCCAAAGTGATAAACCGGACAGTATCATGGACCGGTTTTCCCGGTAATCCGTATTTGCAAGGTTGGTTTCACT; site = the 11-nt target
Procedure: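 Pooled E. coli target-specificity screen for the IS621 bridge recombinase. Each library plasmid pairs an 11-nt target (CT core) with a bridge RNA whose target-binding loop (9-nt LTG + 4-nt RTG) is reprogrammed; the rest of the 177-nt WT IS621 bridge RNA scaffold is fixed. The plasmid is co-electroporated with a WT donor plasmid; recombinase is induced with 0.1 mM IPTG and recombinants are selected on kanamycin. Recombinant barcodes are sequenced, converted to CPM, averaged over two biological replicates and corrected by the unselected control CPM. Molecule = full bridge RNA written as DNA: LTG = specificity nt 1-9, RTG = reverse complement of specificity nt 8-11, in the WT scaffold.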
With “ACATAGACTTGGGTTCTAACCTGTTGCGC (site ACAGAGACTGC)” the “recombinant barcode read abundance (log10)” value was 0.168. With “ACATAGACTTGGGTTCTAACCTGTTGCGC (site ACATAGACTGC)” the “recombinant barcode read abundance (log10)” value was 1.35. With “ACATAGTCTTGGGTTCTAACCTGTTGCAG (site ACATAGTCTCT)” the “recombinant barcode read abundance (log10)” value was 1.01. In the case of “ACATAGTCTTGGGTTCTAACCTGTTGCAG (site CCTTAGTCTCT)”, the “recombinant barcode read abundance (log10)” value is reported as 0.0322. For “ACATAGTCTTGGGTTCTAACCTGTTGCTG (site ACATAGTCTCA)”, the “recombinant barcode read abundance (log10)” value was 0.71. With “ACATAGTCTTGGGTTCTAACCTGTTGCTG (site ACTTAGTCTTA)” the “recombinant barcode read abundance (log10)” value was 0.0401. For “ACATCTCCTTGGGTTCTAACCTGTTGCCT (site ACATCTCCTAG)”, the “recombinant barcode read abundance (log10)” value was 0.503. With “ACATCTCCTTGGGTTCTAACCTGTTGCCT (site CCATCTCCTAG)” the “recombinant barcode read abundance (log10)” value was 0.239. In the case of “ACATCTCCTTGGGTTCTAACCTGTTGCCT (site GCATCTCCTAG)”, the “recombinant barcode read abundance (log10)” value is reported as 0.0778. In the case of “ACATCTCCTTGGGTTCTAACCTGTTGCCT (site TCATCTCCTAG)”, the “recombinant barcode read abundance (log10)” value is reported as 0.0426. In the case of “ACATGATCTTGGGTTCTAACCTGTTGCCT (site ACAATATCTAG)”, the “recombinant barcode read abundance (log10)” value is reported as 0.0106. In the case of “ACATGATCTTGGGTTCTAACCTGTTGCCT (site ACATGATCTAG)”, the “recombinant barcode read abundance (log10)” value is reported as 1.04. In the case of “ACATTTCCTTGGGTTCTAACCTGTTGCCT (site AAATTTCCTAG)”, the “recombinant barcode read abundance (log10)” value is reported as 0.0832. For “ACATTTCCTTGGGTTCTAACCTGTTGCCT (site ACATTTCCTAG)”, the “recombinant barcode read abundance (log10)” value was 0.1. In the case of “ACATTTCCTTGGGTTCTAACCTGTTGCCT (site AGATTTCCTAG)”, the “recombinant barcode read abundance (log10)” value is reported as 0.138. In the case of “ACATTTCCTTGGGTTCTAACCTGTTGCCT (site ATATTTCCTAG)”, the “recombinant barcode read abundance (log10)” value is reported as 0.58. In the case of “ACCAGAGCTTGGGTTCTAACCTGTTGCCT (site ACAAGAGCTAG)”, the “recombinant barcode read abundance (log10)” value is reported as 0.131. With “ACCAGAGCTTGGGTTCTAACCTGTTGCCT (site ACCAGAGCTAG)” the “recombinant barcode read abundance (log10)” value was 0.823. For “ACCAGAGCTTGGGTTCTAACCTGTTGCCT (site ACGAGAGCTAG)”, the “recombinant barcode read abundance (log10)” value was 0.0525. In the case of “ACCAGAGCTTGGGTTCTAACCTGTTGCCT (site ACTAGAGCTAG)”, the “recombinant barcode read abundance (log10)” value is reported as 0.528. With “ACCAGGACTTGGGTTCTAACCTGTTGCCG (site ACCAGGACTCG)” the “recombinant barcode read abundance (log10)” value was 1.94. With “ACCAGGACTTGGGTTCTAACCTGTTGCCG (site GAGCCTCCTAT)” the “recombinant barcode read abundance (log10)” value was 0.091. With “ACCAGTACTTGGGTTCTAACCTGTTGCCT (site ACCAGTACTAG)” the “recombinant barcode read abundance (log10)” value was 0.0544. In the case of “ACCAGTACTTGGGTTCTAACCTGTTGCCT (site ACCCGTACTAG)”, the “recombinant barcode read abundance (log10)” value is reported as 0.0724. For “ACCAGTACTTGGGTTCTAACCTGTTGCCT (site ACCGGTACTAG)”, the “recombinant barcode read abundance (log10)” value was 0.0115. In the case of “ACCAGTACTTGGGTTCTAACCTGTTGCCT (site ACCTGTACTAG)”, the “recombinant barcode read abundance (log10)” value is reported as 0.664. With “ACCATCACTTGGGTTCTAACCTGTTGCCT (site ACAAGCACTAG)” the “recombinant barcode read abundance (log10)” value was 0.103. With “ACCATCACTTGGGTTCTAACCTGTTGCCT (site ACCATCACTAG)” the “recombinant barcode read abundance (log10)” value was 0.79. For “ACCATGTCTTGGGTTCTAACCTGTTGCGG (site ACCATGTCTCC)”, the “recombinant barcode read abundance (log10)” value was 1.96. In the case of “ACCATGTCTTGGGTTCTAACCTGTTGCGG (site TAGTACACTGT)”, the “recombinant barcode read abundance (log10)” value is reported as 0.171. For “ACCCAAGCTTGGGTTCTAACCTGTTGCCT (site ACCCAAACTAG)”, the “recombinant barcode read abundance (log10)” value was 1.14. With “ACCCAAGCTTGGGTTCTAACCTGTTGCCT (site ACCCAACCTAG)” the “recombinant barcode read abundance (log10)” value was 0.199. In the case of “ACCCAAGCTTGGGTTCTAACCTGTTGCCT (site ACCCAAGCTAG)”, the “recombinant barcode read abundance (log10)” value is reported as 1.57. In the case of “ACCCAAGCTTGGGTTCTAACCTGTTGCCT (site ACCCAATCTAG)”, the “recombinant barcode read abundance (log10)” value is reported as 0.196. With “ACCCAGCCTTGGGTTCTAACCTGTTGCGT (site ACCCAGCCTAA)” the “recombinant barcode read abundance (log10)” value was 0.534. In the case of “ACCCAGCCTTGGGTTCTAACCTGTTGCGT (site ACCCAGCCTAC)”, the “recombinant barcode read abundance (log10)” value is reported as 3.25. For “ACCCAGCCTTGGGTTCTAACCTGTTGCGT (site ACCCAGCCTAG)”, the “recombinant barcode read abundance (log10)” value was 0.316. With “ACCCAGCCTTGGGTTCTAACCTGTTGCGT (site ACCCAGCCTAT)” the “recombinant barcode read abundance (log10)” value was 2.22. In the case of “ACCCAGTCTTGGGTTCTAACCTGTTGCCA (site AACCAGTCTCG)”, the “recombinant barcode read abundance (log10)” value is reported as 0.12. With “ACCCAGTCTTGGGTTCTAACCTGTTGCCA (site ACCCAGTCTTG)” the “recombinant barcode read abundance (log10)” value was 0.961. For “ACCCATTCTTGGGTTCTAACCTGTTGCGT (site ACCCATTCTAC)”, the “recombinant barcode read abundance (log10)” value was 2.29. For “ACCCATTCTTGGGTTCTAACCTGTTGCGT (site TAGATAACTCA)”, the “recombinant barcode read abundance (log10)” value was 0.0317. In the case of “ACCCCTCCTTGGGTTCTAACCTGTTGCCA (site ACCCCTCCTTG)”, the “recombinant barcode read abundance (log10)” value is reported as 1.4. For “ACCCCTCCTTGGGTTCTAACCTGTTGCCA (site ACGCCTCCTTG)”, the “recombinant barcode read abundance (log10)” value was 0.228. In the case of “ACCCTAACTTGGGTTCTAACCTGTTGCCG (site ACCCTAACTCG)”, the “recombinant barcode read abundance (log10)” value is reported as 2.03. In the case of “ACCCTAACTTGGGTTCTAACCTGTTGCCG (site ACCCTATCTAG)”, the “recombinant barcode read abundance (log10)” value is reported as 0.129. With “ACCCTGGCTTGGGTTCTAACCTGTTGCCT (site ACACTGGCTAG)” the “recombinant barcode read abundance (log10)” value was 0.0738. In the case of “ACCCTGGCTTGGGTTCTAACCTGTTGCCT (site ACCCTGGCTAG)”, the “recombinant barcode read abundance (log10)” value is reported as 0.816. With “ACCCTGGCTTGGGTTCTAACCTGTTGCCT (site ACGCTGGCTAG)” the “recombinant barcode read abundance (log10)” value was 0.326. With “ACCCTGGCTTGGGTTCTAACCTGTTGCCT (site ACTCTGGCTAG)” the “recombinant barcode read abundance (log10)” value was 0.205. For “ACCGACCCTTGGGTTCTAACCTGTTGCCG (site ACCGACCCTCG)”, the “recombinant barcode read abundance (log10)” value was 1.47. In the case of “ACCGACCCTTGGGTTCTAACCTGTTGCCG (site ACCGTCCCTCG)”, the “recombinant barcode read abundance (log10)” value is reported as 0.105. With “ACCGATTCTTGGGTTCTAACCTGTTGCAT (site ACCGATTCTAT)” the “recombinant barcode read abundance (log10)” value was 0.696. For “ACCGATTCTTGGGTTCTAACCTGTTGCAT (site GCCGATTCTAG)”, the “recombinant barcode read abundance (log10)” value was 0.331. For “ACCGTCCCTTGGGTTCTAACCTGTTGCCG (site ACCGACCCTCG)”, the “recombinant barcode read abundance (log10)” value was 0.0364. With “ACCGTCCCTTGGGTTCTAACCTGTTGCCG (site ACCGTCCCTCG)” the “recombinant barcode read abundance (log10)” value was 0.107. With “ACCTCAACTTGGGTTCTAACCTGTTGCCT (site ACATCAACTAG)” the “recombinant barcode read abundance (log10)” value was 0.0721. In the case of “ACCTCAACTTGGGTTCTAACCTGTTGCCT (site ACCTCAACTAG)”, the “recombinant barcode read abundance (log10)” value is reported as 0.19. In the case of “ACCTCAACTTGGGTTCTAACCTGTTGCCT (site ACGTCAACTAG)”, the “recombinant barcode read abundance (log10)” value is reported as 0.188. In the case of “ACCTCAACTTGGGTTCTAACCTGTTGCCT (site ACTTCAACTAG)”, the “recombinant barcode read abundance (log10)” value is reported as 0.215. With “ACCTCTTCTTGGGTTCTAACCTGTTGCTA (site ACCTCTTCTTA)” the “recombinant barcode read abundance (log10)” value was 0.141. In the case of “ACCTCTTCTTGGGTTCTAACCTGTTGCTA (site CGTCGACCTAT)”, the “recombinant barcode read abundance (log10)” value is reported as 0.204. With “ACCTGACCTTGGGTTCTAACCTGTTGCCT (site ACCTGACCTAG)” the “recombinant barcode read abundance (log10)” value was 1.31. With “ACCTGACCTTGGGTTCTAACCTGTTGCCT (site ACCTGCCCTAG)” the “recombinant barcode read abundance (log10)” value was 0.0303. With “ACCTGACCTTGGGTTCTAACCTGTTGCCT (site ACCTGGCCTAG)” the “recombinant barcode read abundance (log10)” value was 0.1. With “ACCTGACCTTGGGTTCTAACCTGTTGCCT (site ACCTGTCCTAG)” the “recombinant barcode read abundance (log10)” value was 0.0737. For “ACCTGGCCTTGGGTTCTAACCTGTTGCCT (site ACCTGACCTAG)”, the “recombinant barcode read abundance (log10)” value was 0.165. With “ACCTGGCCTTGGGTTCTAACCTGTTGCCT (site ACCTGCCCTAG)” the “recombinant barcode read abundance (log10)” value was 0.147. For “ACCTGGCCTTGGGTTCTAACCTGTTGCCT (site ACCTGGCCTAG)”, the “recombinant barcode read abundance (log10)” value was 0.412. In the case of “ACCTGGCCTTGGGTTCTAACCTGTTGCCT (site ACCTGTCCTAG)”, the “recombinant barcode read abundance (log10)” value is reported as 0.247. With “ACCTGGGCTTGGGTTCTAACCTGTTGCCT (site AACTGGGCTAG)” the “recombinant barcode read abundance (log10)” value was 0.0365. In the case of “ACCTGGGCTTGGGTTCTAACCTGTTGCCT (site ACCTGGGCTAG)”, the “recombinant barcode read abundance (log10)” value is reported as 0.0605. In the case of “ACCTGGGCTTGGGTTCTAACCTGTTGCCT (site AGCTGGGCTAG)”, the “recombinant barcode read abundance (log10)” value is reported as 0. In the case of “ACCTGGGCTTGGGTTCTAACCTGTTGCCT (site ATCTGGGCTAG)”, the “recombinant barcode read abundance (log10)” value is reported as 0.12. For “ACCTTACCTTGGGTTCTAACCTGTTGCGG (site ACCTTACCTAC)”, the “recombinant barcode read abundance (log10)” value was 0.37. In the case of “ACCTTACCTTGGGTTCTAACCTGTTGCGG (site ACCTTACCTCC)”, the “recombinant barcode read abundance (log10)” value is reported as 0.617. In the case of “ACCTTACCTTGGGTTCTAACCTGTTGCGT (site ACCTTACCTAC)”, the “recombinant barcode read abundance (log10)” value is reported as 1.97. For “ACCTTACCTTGGGTTCTAACCTGTTGCGT (site ACCTTACCTCC)”, the “recombinant barcode read abundance (log10)” value was 0.504. In the case of “ACGAAGGCTTGGGTTCTAACCTGTTGCCG (site ACGAAGGCTAG)”, the “recombinant barcode read abundance (log10)” value is reported as 0.182. For “ACGAAGGCTTGGGTTCTAACCTGTTGCCG (site ACGAAGGCTCG)”, the “recombinant barcode read abundance (log10)” value was 0.691. For “ACGACCGCTTGGGTTCTAACCTGTTGCCT (site ACGAACGCTAG)”, the “recombinant barcode read abundance (log10)” value was 0.571. For “ACGACCGCTTGGGTTCTAACCTGTTGCCT (site ACGACCGCTAG)”, the “recombinant barcode read abundance (log10)” value was 0.804.
